In ChEMBL document CHEMBL5724914, “Linking interpersonal differences in gut microbiota composition and drug biotransformation activity” (2024):
Each block holds one molecule with its values, some of them ahead of it.

Legend:
[1] = The drug is tested on Z-023 corresponding to metagenome with ENA study accession number: PRJEB37062 and ENA sample accession number: ERS12561822 for biotransformation under anaerobic condition. The drug concentrations were measured over 9 timepoints collected between 0 and 24 hours of incubation by liquid-chromatography-coupled mass spectrometry (LC–MS); conditions: 2 µM
[2] = The drug is tested on Z-021 corresponding to metagenome with ENA study accession number: PRJEB37062 and ENA sample accession number: ERS12561820 for biotransformation under anaerobic condition. The drug concentrations were measured over 9 timepoints collected between 0 and 24 hours of incubation by liquid-chromatography-coupled mass spectrometry (LC–MS); conditions: 2 µM
[3] = The drug is tested on Z-016 corresponding to mouse gut metagenome with ENA study accession number: PRJEB37062 and ENA sample accession number: ERS12561815 for biotransformation under anaerobic condition. The drug concentrations were measured over 9 timepoints collected between 0 and 24 hours of incubation by liquid-chromatography-coupled mass spectrometry (LC–MS); conditions: 2 µM
[4] = The drug is tested on Z-009 corresponding to pig gut metagenome with ENA study accession number: PRJEB37062 and ENA sample accession number: ERS12561809 for biotransformation under anaerobic condition. The drug concentrations were measured over 9 timepoints collected between 0 and 24 hours of incubation by liquid-chromatography-coupled mass spectrometry (LC–MS); conditions: 2 µM
[5] = The drug is tested on Z-008 corresponding to metagenome with ENA study accession number: PRJEB37062 and ENA sample accession number: ERS12561808 for biotransformation under anaerobic condition. The drug concentrations were measured over 9 timepoints collected between 0 and 24 hours of incubation by liquid-chromatography-coupled mass spectrometry (LC–MS); conditions: 2 µM
[6] = The drug is tested on WLS-370 corresponding to human gut metagenome with ENA study accession number: PRJEB37062 and ENA sample accession number: ERS12561793 for biotransformation under anaerobic condition. The drug concentrations were measured over 9 timepoints collected between 0 and 24 hours of incubation by liquid-chromatography-coupled mass spectrometry (LC–MS); conditions: 2 µM
[7] = The drug is tested on WLS-220 corresponding to human gut metagenome with ENA study accession number: PRJEB37062 and ENA sample accession number: ERS12561769 for biotransformation under anaerobic condition. The drug concentrations were measured over 9 timepoints collected between 0 and 24 hours of incubation by liquid-chromatography-coupled mass spectrometry (LC–MS); conditions: 2 µM
[8] = The drug is tested on WLS-170 corresponding to human gut metagenome with ENA study accession number: PRJEB37062 and ENA sample accession number: ERS12561762 for biotransformation under anaerobic condition. The drug concentrations were measured over 9 timepoints collected between 0 and 24 hours of incubation by liquid-chromatography-coupled mass spectrometry (LC–MS); conditions: 2 µM
[9] = The drug is tested on WLS-086 corresponding to human gut metagenome with ENA study accession number: PRJEB37062 and ENA sample accession number: ERS12561752 for biotransformation under anaerobic condition. The drug concentrations were measured over 9 timepoints collected between 0 and 24 hours of incubation by liquid-chromatography-coupled mass spectrometry (LC–MS); conditions: 2 µM
[10] = The drug is tested on WLS-082 corresponding to human gut metagenome with ENA study accession number: PRJEB37062 and ENA sample accession number: ERS12561751 for biotransformation under anaerobic condition. The drug concentrations were measured over 9 timepoints collected between 0 and 24 hours of incubation by liquid-chromatography-coupled mass spectrometry (LC–MS); conditions: 2 µM
[11] = The drug is tested on WLS-077 corresponding to human gut metagenome with ENA study accession number: PRJEB37062 and ENA sample accession number: ERS12561750 for biotransformation under anaerobic condition. The drug concentrations were measured over 9 timepoints collected between 0 and 24 hours of incubation by liquid-chromatography-coupled mass spectrometry (LC–MS); conditions: 2 µM
[12] = The drug is tested on WLS-006 corresponding to human gut metagenome with ENA study accession number: PRJEB37062 and ENA sample accession number: ERS12561741 for biotransformation under anaerobic condition. The drug concentrations were measured over 9 timepoints collected between 0 and 24 hours of incubation by liquid-chromatography-coupled mass spectrometry (LC–MS); conditions: 2 µM
[13] = human gut metagenome, 24 h, 2 µM
[14] = human gut metagenome, 24 h, 2 µM; remark: listed apart in the source
[15] = human gut metagenome, 24 h, 2 µM; remark: listed apart in the source
[16] = human gut metagenome, 24 h, 2 µM; remark: listed apart in the source
[17] = human gut metagenome, 24 h, 2 µM; remark: listed apart in the source
[18] = human gut metagenome, 24 h, 2 µM; remark: listed apart in the source
[19] = human gut metagenome, 24 h, 2 µM; remark: listed apart in the source
[20] = human gut metagenome, 24 h, 2 µM; remark: listed apart in the source
Note: call rule not given here.

Bacterial Biotransformation [1]: Compound metabolized
Bacterial Biotransformation [2]: Compound metabolized
Bacterial Biotransformation [3]: Compound metabolized
Bacterial Biotransformation [4]: Compound metabolized
Bacterial Biotransformation [5]: Compound NOT metabolized
Bacterial Biotransformation [6]: Compound NOT metabolized
Bacterial Biotransformation [7]: Compound metabolized
Bacterial Biotransformation [8]: Compound metabolized
Bacterial Biotransformation [9]: Compound metabolized
Bacterial Biotransformation [10]: Compound metabolized
Bacterial Biotransformation [11]: Compound metabolized
Bacterial Biotransformation [12]: Compound metabolized
Bacterial Biotransformation [13]: Compound metabolized
Bacterial Biotransformation [14]: Compound metabolized
Bacterial Biotransformation [15]: Compound metabolized
Bacterial Biotransformation [16]: Compound metabolized
Bacterial Biotransformation [17]: Compound metabolized
Bacterial Biotransformation [18]: Compound metabolized
Bacterial Biotransformation [19]: Compound NOT metabolized
Bacterial Biotransformation [20]: Compound metabolized
Compound: CCN(CC)CCOC(=O)C(Cc1cccc2ccccc12)CC1CCCO1.O=C(O)C(=O)O (stereo not given) [NAFRONYL OXALATE]

Bacterial Biotransformation [1]: Compound NOT metabolized
Bacterial Biotransformation [2]: Compound NOT metabolized
Bacterial Biotransformation [3]: Compound NOT metabolized
Bacterial Biotransformation [4]: Compound NOT metabolized
Bacterial Biotransformation [5]: Compound NOT metabolized
Bacterial Biotransformation [6]: Compound NOT metabolized
Bacterial Biotransformation [7]: Compound metabolized
Bacterial Biotransformation [8]: Compound metabolized
Bacterial Biotransformation [9]: Compound metabolized
Bacterial Biotransformation [10]: Compound metabolized
Bacterial Biotransformation [11]: Compound NOT metabolized
Bacterial Biotransformation [12]: Compound metabolized
Bacterial Biotransformation [13]: Compound NOT metabolized
Bacterial Biotransformation [14]: Compound metabolized
Bacterial Biotransformation [15]: Compound metabolized
Bacterial Biotransformation [16]: Compound metabolized
Bacterial Biotransformation [17]: Compound metabolized
Bacterial Biotransformation [18]: Compound metabolized
Bacterial Biotransformation [19]: Compound metabolized
Bacterial Biotransformation [20]: Compound metabolized
Compound: CCc1nn(CCCN2CCN(c3cccc(Cl)c3)CC2)c(=O)n1CCOc1ccccc1 [NEFAZODONE]

Bacterial Biotransformation [1]: Compound NOT metabolized
Bacterial Biotransformation [2]: Compound NOT metabolized
Bacterial Biotransformation [3]: Compound NOT metabolized
Bacterial Biotransformation [4]: Compound NOT metabolized
Bacterial Biotransformation [5]: Compound NOT metabolized
Bacterial Biotransformation [6]: Compound metabolized
Bacterial Biotransformation [7]: Compound metabolized
Bacterial Biotransformation [8]: Compound NOT metabolized
Bacterial Biotransformation [9]: Compound metabolized
Bacterial Biotransformation [10]: Compound NOT metabolized
Bacterial Biotransformation [11]: Compound NOT metabolized
Bacterial Biotransformation [12]: Compound metabolized
Bacterial Biotransformation [13]: Compound metabolized
Bacterial Biotransformation [14]: Compound metabolized
Bacterial Biotransformation [15]: Compound NOT metabolized
Bacterial Biotransformation [16]: Compound metabolized
Bacterial Biotransformation [17]: Compound metabolized
Bacterial Biotransformation [18]: Compound metabolized
Bacterial Biotransformation [19]: Compound NOT metabolized
Bacterial Biotransformation [20]: Compound metabolized
Compound: CN1CCOC(c2ccccc2)c2ccccc2C1 (stereo not given) [NEFOPAM]

Continued, molecule first:

Compound: Cc1ccnc2c1NC(=O)c1cccnc1N2C1CC1 [NEVIRAPINE]
Bacterial Biotransformation [1]: Compound metabolized
Bacterial Biotransformation [2]: Compound NOT metabolized
Bacterial Biotransformation [3]: Compound NOT metabolized
Bacterial Biotransformation [4]: Compound NOT metabolized
Bacterial Biotransformation [5]: Compound NOT metabolized
Bacterial Biotransformation [6]: Compound metabolized
Bacterial Biotransformation [7]: Compound metabolized
Bacterial Biotransformation [8]: Compound metabolized
Bacterial Biotransformation [9]: Compound metabolized
Bacterial Biotransformation [10]: Compound NOT metabolized
Bacterial Biotransformation [11]: Compound NOT metabolized
Bacterial Biotransformation [12]: Compound NOT metabolized
Bacterial Biotransformation [13]: Compound NOT metabolized
Bacterial Biotransformation [14]: Compound NOT metabolized
Bacterial Biotransformation [15]: Compound NOT metabolized
Bacterial Biotransformation [16]: Compound metabolized
Bacterial Biotransformation [17]: Compound metabolized
Bacterial Biotransformation [18]: Compound NOT metabolized
Bacterial Biotransformation [19]: Compound metabolized
Bacterial Biotransformation [20]: Compound metabolized

Compound: COc1ccc2c(c1OC)C(=O)O[C@@H]2[C@H]1c2c(cc3c(c2OC)OCO3)CCN1C [NOSCAPINE]
Bacterial Biotransformation [1]: Compound metabolized
Bacterial Biotransformation [2]: Compound NOT metabolized
Bacterial Biotransformation [3]: Compound metabolized
Bacterial Biotransformation [4]: Compound metabolized
Bacterial Biotransformation [5]: Compound NOT metabolized
Bacterial Biotransformation [6]: Compound NOT metabolized
Bacterial Biotransformation [7]: Compound metabolized
Bacterial Biotransformation [8]: Compound metabolized
Bacterial Biotransformation [9]: Compound metabolized
Bacterial Biotransformation [10]: Compound NOT metabolized
Bacterial Biotransformation [11]: Compound metabolized
Bacterial Biotransformation [12]: Compound metabolized
Bacterial Biotransformation [13]: Compound metabolized
Bacterial Biotransformation [14]: Compound metabolized
Bacterial Biotransformation [15]: Compound NOT metabolized
Bacterial Biotransformation [16]: Compound metabolized
Bacterial Biotransformation [17]: Compound metabolized
Bacterial Biotransformation [18]: Compound metabolized
Bacterial Biotransformation [19]: Compound metabolized
Bacterial Biotransformation [20]: Compound metabolized
